Where “and” joins values, the source holds several entries; their conditions need not be identical. Equal entries are not always repeated. Entries after “also recorded” stand apart in the source; their conditions may differ.
Experiments:
[1] = test system: L. infantum (MHOM/MA/67/ITMAP-263) axenic amastigotes; experiment: In vivo anti-amastigote activity in BALB/c mice infection model (limiting dilution parasite burden); settings: spleen, liver, bone marrow; URB1483 5 mg/kg/day IP in 60% PEG 400, 10 days; 5 mg/kg/day
Procedure: The compound URB1483 was selected for the in vivo evaluation on a BALB/c mice infection model. Six- to seven-week-old BALB/c mice were purchased from Charles River Laboratories (Barcelona, Spain) or the I3S (Porto, Portugal) animal facility. Luciferase-expressing L. infantum (MHOM/MA/67/ITMAP-263) axenic amastigotes were cultured in complete cell-free medium MAA/20 [20] at 37°C with 5% CO2. Five-day-old cultures of amastigotes were washed twice with PBS and resuspended at a concentration of 1×10^9 parasites/Ml. A total of 17 mice were infected with 100 μL of parasite suspension containing 1×10^8 parasites. The injection was performed intra-venously (IV) in the tails of mice, and treatments started 21 days post-infection for 10 consecutive days. Formulation studies are reported in the Supporting Information (S1 Table in S1 File). […]
Mice well-being-assessment was checked every two days, in terms of weight control and the presence of stress signs. […] Spleen and liver were weighted, and bone marrow cells were counted with automatic cell counter EVE^TM (NanoEnTek, Seul, Korea). […] For bone marrow, the number of parasites was calculated per 10^5 cells using the formula: [(geometric mean of reciprocal titer from each triplicate/number of cells) × reciprocal fraction of the cells inoculated into the first well]. […]

[2] = Formulation (solubility and stability) study of URB1483; assay type: physicochemical; settings: for Solubility: 48-72 h at 37 °C
Procedure: Equivalence calculation between URB1483 concentration and injectable dose (mg/kg) […]
Considering an average mice weight of 25 g and an IP injectable volume of 100 μL, the following […]
correspondence can be considered:
[URB1483](mg/mL) = Dose (mg/kg) ∙ 0.025 (kg)
[URB1483](mM) = Dose (mg/kg) ∙0.025 (kg)
General procedure for the formulation study
To the indicated volume of the URB1483 stock solution in DMSO (25.0 mg/mL , 50.24 mM) were […]
added the appropriate volume or weight of excipient and the resulting mixture was heated at 37 °C […]
and sonicated for 10-20 min. Finally, distilled water was added to reach the final volume of 1 mL […]
(Table S1). The resulting formulation was ma intained at 37 °C under stirring for 48-72 h. At regular […]
time points, aliquots of the described formulations were sampled, centrifuged (8000 rpm, 10 min), […]
and two volumes of acetonitrile were added. After further centrifugation (8000 rpm, 10 min), the […]
resulted clear samples were analyzed by HPLC -ESI-MS for a percentage of the remaining compound.
URB1483 was considered soluble and stable in the formulation with more than 90% of the compoun d […]
Table S1 – Preliminary Formulation Study on URB1483[a]
Entry Final Dose Stock Solution URB1483 Volume Excipient Solubility[b]
2[c] 1 mg/kg 5 μL DMSO (95 μL) 🗶
3[c] 1 mg/kg 5 μL DMSO (195 μL) ✓
[a] DMSO = dimethylsulfoxide; PG = propylene glycol; PEG = polyethylene glycol; HPBC = 2-hydropropyl- […]
β-cyclodextrin. [b] URB1483 was considered soluble and stable with more than 90% of the compound […]
remaining unaltered after 48-72 h at 37 °C, by HPLC-ESI-MS analysis. [c] Instead of water, a physiological […]
solution (saline) was utilized.

[3] = test system: L. infantum MHOM/TN/80/IPT1 promastigotes; parameters: method as in PMID 34984300; settings: read-out: IC50 against L. infantum promastigotes; cited from earlier work
THP-1 cells = test system: THP-1 cells; parameters: method as in PMID 34984300; settings: cited from earlier work
[4] = test system: L. infantum intracellular amastigotes; parameters: method as in PMID 34984300; settings: compared with pentamidine; cited from earlier work
[5] = test system: THP-1, DH82, HepG2, HaCaT and HPF cells; parameters: method as in PMID 34984300; settings: cited from earlier work

CCOC(=O)c1c(C(=O)OC)cn(CC(c2cn(C)c3ccccc23)c2cn(C)c3ccccc23)c1C [URB1483]
effect on parasite burden (in vivo efficacy) [1]: did not significantly reduce parasite burden; also recorded: No in vivo efficacy; also recorded: could not reduce parasite burden; also recorded: ineffective | water solubility [2]: Poorly soluble in water; also recorded: very poor water solubility; also recorded: poor water solubility | maximum injectable concentration ([2]; 60% PEG 400 in water, 1.25 mg/mL, mouse weight 25 g, injection volume 100 μL): 5 mg/kg | Solubility ([2]; entry 3: final dose 1 mg/kg, DMSO (195 μL), saline): ✓ (URB1483 was considered soluble and stable with more than 90% of the compound remaining unaltered after 48-72 h at 37 °C, by HPLC-ESI-MS analysis) | Solubility ([2]; entry 6: final dose 1 mg/kg, PG (600 mg), water): ✓ (URB1483 was considered soluble and stable with more than 90% of the compound remaining unaltered after 48-72 h at 37 °C, by HPLC-ESI-MS analysis) | Solubility ([2]; entry 9: final dose 1 mg/kg, PEG 400 (400 mg), water): ✓ (URB1483 was considered soluble and stable with more than 90% of the compound remaining unaltered after 48-72 h at 37 °C, by HPLC-ESI-MS analysis) | Solubility ([2]; entry 11: final dose 1 mg/kg, PEG 400 (500 mg), water): ✓ (URB1483 was considered soluble and stable with more than 90% of the compound remaining unaltered after 48-72 h at 37 °C, by HPLC-ESI-MS analysis) | Solubility ([2]; entry 12: final dose 2 mg/kg, PEG 400 (500 mg), water): ✓ (URB1483 was considered soluble and stable with more than 90% of the compound remaining unaltered after 48-72 h at 37 °C, by HPLC-ESI-MS analysis) | Solubility ([2]; entry 14: final dose 1 mg/kg, PEG 400 (600 mg), water): ✓ (URB1483 was considered soluble and stable with more than 90% of the compound remaining unaltered after 48-72 h at 37 °C, by HPLC-ESI-MS analysis) | Solubility ([2]; entry 15: final dose 2 mg/kg, PEG 400 (600 mg), water): ✓ (URB1483 was considered soluble and stable with more than 90% of the compound remaining unaltered after 48-72 h at 37 °C, by HPLC-ESI-MS analysis) | Solubility ([2]; entry 16: final dose 5 mg/kg, PEG 400 (600 mg), water): ✓ (URB1483 was considered soluble and stable with more than 90% of the compound remaining unaltered after 48-72 h at 37 °C, by HPLC-ESI-MS analysis) | Solubility ([2]; entry 19: final dose 1 mg/kg, HPBC (400 mg), water): ✓ (URB1483 was considered soluble and stable with more than 90% of the compound remaining unaltered after 48-72 h at 37 °C, by HPLC-ESI-MS analysis) | IC50 [3]: 3.7 µM and 4 µM | CC50 (THP-1 cells): > 200 µM | selectivity index (SI) (THP-1 cells): greater than 55 | efficacy on in vitro infection model [4]: comparable to that of the commercial drug pentamidine | toxicity on mammalian cell lines [5]: did not affect the viability; also recorded: No toxicity

From article PMC11175440, “Exploring hydrophilic 2,2-di(indol-3-yl)ethanamine derivatives against Leishmania infantum” (PLOS ONE, 2024)
